{
  "source": "paper PMC8703450",
  "about": "“New Heterocyclic Combretastatin A-4 Analogs: Synthesis and Biological Activity of Styryl-2(3H)-benzothiazolones” (Pharmaceuticals, 2021)",
  "key": {"EA.hy926 cells [1]": {"system": "EA.hy926 cells", "assay": "In vitro cell migration (wound-healing) assay", "format": "cell-based, human", "settings": "24 h", "procedure": "A total of 3 × 10^5 EA.hy926 cells were seeded in a 12-well plate and grown close to the confluence. The cell monolayer was gently scraped with a P200 pipette tip, creating a wound area around 1-mm wide. Cells were washed twice with fresh medium and treated with test compounds diluted in growth media to the corresponding sub-toxic concentrations. Images were acquired at 0 and 24 h following treatment. After incubation for 24 h, the scratch wound width was measured and recorded, and then compared with the initial scratch wound width at 0 h. Using the ImageJ image processing program (ImageJ150-WIN-Java8), the size of the denuded area in pixels was determined at each time point from the digital images."}, "[2]": {"assay": "MTT cytotoxicity assay, BEAS-2B control cells", "format": "cell-based", "settings": "human, read-out: Cytostatic activity (% viable cells)", "procedure": "(§1) All tested compounds were dissolved in DMSO at 25 mM initial concentration and diluted with medium to obtain the working concentrations (0.01 nM–250 µM). Serial drug dilutions were prepared in medium immediately before each experiment. The DMSO working concentration in the medium was […]. For the MTT assay, cells were seeded into 96-well microtitre plates at a density of 1 × 10^4 in 100 µL complete medium per well. They were further incubated for 24 h, followed by treatment with CA-4 analogs up to 72 h. Cell viability was determined using the MTT assay. Ten µL of MTT solution (5 mg/mL) was added to each well and further incubated for 3 h at 37 °C. To dissolve the formazan product, 100 µL/well of 99.5% isopropanol was added. Cell viability was determined by measuring absorbance at 550/630 nm using a DTX880 plate reader (Beckman Coulter, USA). Results, expressed as concentrations that inhibit 20% (IC20), 50% (IC50), and 80% (IC80) of cell growth, were calculated using GraphPad Prism 8.0.1.\n(§2) Table S 3.1. Description of eukaryotic cell lines used for MTT assay.\n(§3) Panel Cell line Origin Tissue, characteristics Source Culture conditions\n(§4) (h) lung carcinoma ATCC, CCL-185 U/mL penicillin, 100\nlung, bronchus; insulin, rhEGF, GA-\nBEAS-2B h epithelial virus ATCC, CRL- 1000, BPE,"}, "[3]": {"system": "rhodamine-labeled α,β-tubulin", "assay": "Ex vivo rhodamine-tubulin polymerization (fluorescence microscopy)", "settings": "20 μM, 37 °C, 45 min", "experimental": "TAMRA-Tubulin (TL590M, Cytoskeleton) diluted in GTB buffer (PEM, 10% glycerol, 1 mM GTP) was mixed with unlabeled α,β-tubulin (T240, Cytoskeleton) at a ratio of 1:3 (v/v) to a concentration of 4.0 mg/mL. […] Samples were then centrifuged for 20 min at 30,000× g. The pellets were diluted in 6 µL PEM buffer, containing 1 mM GTP and 0.5% glutaraldehyde, mixed with anti-fade mounting media (P36934, Invitrogen, Eugene, USA), and examined under a confocal LSM 980 Airyscan microscope (Carl Zeiss AG, Oberkochen, Germany)."}, "EA.hy926 cells [4]": {"system": "EA.hy926 cells", "assay": "MTT cytotoxicity / growth inhibition assay, EA.hy926", "format": "cell-based, human", "settings": "Homo sapiens; for IC50: EA.hy 926, 72 h of treatment", "procedure": "The endothelial cell line (EA.hy926) was kindly provided by Dr. C-J.S. Edgell—University of North Carolina, USA. Cells were cultured in 4.5 g/L D-Glucose DMEM/F12 medium, supplemented with 10% fetal bovine serum (FBS, Cytogen GmBH, Greven, Germany) and 100 U/mL penicillin and streptomycin (Lonza BioWhitaker, Verviers, Belgium). The other cell lines used are described in Table S3.1. Cell cultures were maintained in an incubator at 37 °C with 95% humidity and 5% CO2 and were routinely found free of mycoplasma.\nas §1"}, "Colon-26 cells": {"system": "Colon-26 cells", "assay": "MTT cytotoxicity assay, Colon-26", "format": "cell-based", "settings": "Mus musculus, 72 h", "procedure": "as §1, §2\n(§5) Panel Cell line Origin Tissue, characteristics Source Culture conditions […]\n(§6) (h) lung carcinoma ATCC, CCL-185 U/mL penicillin, 100 […]\n(§7) lung, bronchus; insulin, rhEGF, GA-BEAS-2B h epithelial virus ATCC, CRL- 1000, BPE, transformed 9609 transferrin,\n(§8) HT-29 h colon, colorectal Radostina adenocarcinoma Alexandrova 3.1 g/L D-Glucose […]"}, "[5]": {"system": "colchicine binding site of β-tubulin", "assay": "Colchicine-binding site assay (EBI competition) in EA.hy926 cells", "format": "cell-based, human", "settings": "then 100 µM EBI 2 h, Western blot", "procedure": "N,N′-ethylene-bis(iodoacetamide) (abcam, ab144980) was dissolved in DMSO to a final concentration of 50 mM. EA.hy926 cells were seeded at density of 1 × 10^5 cells/mL and incubated overnight. […] Cells were lysed with Laemmli buffer and subjected to Western blot analysis for β-tubulin [66, 67]. The detailed Western blot method is as shown above."}, "A549 cells": {"system": "A549 cells", "assay": "MTT cytotoxicity assay, A549", "format": "cell-based", "settings": "Homo sapiens, 72 h", "procedure": "as §1, §2, §3, §4\nlung, bronchus; insulin, rhEGF, GA- […]\nColon BAS) 10% (v/v) FBS, 100"}, "MCF-10A cells": {"system": "MCF-10A cells", "assay": "MTT cytotoxicity assay, MCF-10A control cells", "format": "cell-based, human", "settings": "Homo sapiens, 72 h", "procedure": "as §1, §2, §5, §6, §7, §8"}, "[6]": {"assay": "MTT cytotoxicity assay, MCF-10A control cells", "format": "cell-based, human", "settings": "human, read-out: Cytostatic activity (% viable cells)", "procedure": "as §1, §2, §5, §6, §7, §8"}, "EA.hy926 cells [7]": {"system": "EA.hy926 cells", "assay": "Immunofluorescence of mitotic spindles (α-tubulin)", "format": "cell-based, human", "settings": "24 h", "procedure": "Indirect immunofluorescence was used to examine the effect of 26Z on α-tubulin in EA.hy 926 cells. A total of 1 × 10^4 cells grown on coverslips were washed with PBS and fixed with 3.7% buffered paraformaldehyde. Single fluorescence cell labeling was performed, as described by Apostolova et al., with a primary chicken antibody against α-tubulin (ab89984, Abcam) for 2 h. Cells were washed three times with PBS for 5 min and incubated for 60 min with a goat anti-chicken secondary antibody labeled with AlexaFluor-488 (ab150173, Abcam). F-actin was detected using AlexaFluor-568 Phalloidin (Invitrogen, MA, USA). Following three washes with PBS and two in water, the slides were mounted in UltraCruz fluorescence mounting medium with DAPI (sc-24941, Santa Cruz Biotechnology, USA). Fluorescence microscopy was performed with a Carl Zeiss Axiovert 200 M Inverted Microscope and Andor Dragonfly 505 Confocal Microscope equipped with an iXon Ultra 888 EMCCD camera (Andor, Oxford Instruments, Belfast, Northern Irelands)."}},
  "data": [
    {"smiles": "COc1ccc(/C=C\\c2cc(OC)c(OC)c(OC)c2)cc1O", "note": "[CA-4, Combretastatin A-4]", "values": [
      {"measurement": "remaining mean wound opened area", "setting": "EA.hy926 cells [1]; EA.hy926, 1 nM", "result": 24.4, "unit": "%"},
      {"measurement": "viability at 72 h", "setting": "[2]; BEAS-2B cells", "result": 80, "unit": "%"},
      {"measurement": "fluorescent microtubule fiber formation", "setting": "[3]", "result": "blocked the process of fiber formation"},
      {"measurement": "IC50", "setting": "EA.hy926 cells [4]", "result": "3.3 ± 0.2", "unit": "nM"},
      {"measurement": "IC50", "setting": "Colon-26 cells", "result": "660 ± 82", "unit": "nM"},
      {"measurement": "tubulin EBI-adduct formation", "setting": "[5]; EA.hy926, 10 μM compound 2 h", "result": "inhibited"},
      {"measurement": "IC50", "setting": "A549 cells", "result": "3010 ± 160", "unit": "nM"},
      {"measurement": "IC50", "setting": "MCF-10A cells", "result": "1640 ± 340", "unit": "nM"}
    ]},
    {"smiles": "COc1cc(/C=C\\c2ccc3c(c2)sc(=O)n3C)cc(OC)c1OC", "note": "[Compound 26Z, (Z)-3-methyl-6-(3,4,5-trimethoxystyryl)-2(3H)-benzothiazolone]", "values": [
      {"measurement": "remaining mean wound opened area", "setting": "EA.hy926 cells [1]; EA.hy926, 50 nM", "result": 49, "unit": "%"},
      {"measurement": "viability at 72 h", "setting": "[2]", "result": 80, "unit": "%"},
      {"measurement": "fluorescent microtubule fiber formation", "setting": "[3]", "result": "blocked the process of fiber formation"},
      {"measurement": "IC50", "setting": "EA.hy926 cells [4]", "result": "130 ± 10", "unit": "nM"},
      {"measurement": "IC20", "setting": "EA.hy926 cells [4]; EA.hy 926, concentration that inhibits 20% of cell growth", "result": "40 ± 10", "unit": "nM"},
      {"measurement": "IC80", "setting": "EA.hy926 cells [4]; EA.hy 926, concentration that inhibits 80% of cell growth", "result": "300 ± 40", "unit": "nM"},
      {"measurement": "tubulin EBI-adduct formation", "setting": "[5]; EA.hy926, 25 µM compound 2 h", "result": "inhibited"},
      {"measurement": "viability at 72 h", "setting": "[6]", "result": 65, "unit": "%"},
      {"measurement": "number of spindle poles (multipolarity)", "setting": "EA.hy926 cells [7]; EA.hy926, IC50 (130 nM)", "result": "3.9 ± 0.99"},
      {"measurement": "number of spindle poles (multipolarity)", "setting": "EA.hy926 cells [7]; EA.hy926, IC80 (300 nM)", "result": "8.8 ± 2.3"}
    ]}
  ]
}
